From ChEMBL document CHEMBL3039007, “Structure-based identification of OATP1B1/3 inhibitors” (Mol Pharmacol, 2013)

Tests used:
[1] = molecular target: T1, Solute carrier organic anion transporter family member 1B3 (Homo sapiens, UniProt Q9NPD5); details: chinese hamster, cho, 10 µM
T1 sequence (Q9NPD5 whole entry): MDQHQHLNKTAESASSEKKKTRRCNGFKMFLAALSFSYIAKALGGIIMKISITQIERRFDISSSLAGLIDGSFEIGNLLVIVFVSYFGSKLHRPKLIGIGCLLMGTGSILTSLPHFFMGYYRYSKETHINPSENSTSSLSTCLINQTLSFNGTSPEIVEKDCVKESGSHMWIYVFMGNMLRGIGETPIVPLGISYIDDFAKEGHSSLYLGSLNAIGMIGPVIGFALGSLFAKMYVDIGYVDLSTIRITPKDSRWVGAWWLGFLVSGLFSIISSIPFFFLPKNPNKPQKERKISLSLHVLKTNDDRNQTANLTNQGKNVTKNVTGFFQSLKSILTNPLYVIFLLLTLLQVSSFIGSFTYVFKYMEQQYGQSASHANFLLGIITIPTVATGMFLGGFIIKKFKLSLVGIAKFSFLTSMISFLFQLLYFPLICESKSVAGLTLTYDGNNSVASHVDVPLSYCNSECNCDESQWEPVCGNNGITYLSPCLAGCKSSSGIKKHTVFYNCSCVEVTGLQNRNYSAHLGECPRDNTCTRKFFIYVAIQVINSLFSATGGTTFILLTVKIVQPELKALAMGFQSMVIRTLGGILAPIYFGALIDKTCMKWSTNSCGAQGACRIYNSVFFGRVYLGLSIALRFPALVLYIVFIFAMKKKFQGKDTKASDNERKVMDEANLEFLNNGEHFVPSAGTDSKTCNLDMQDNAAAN

[2] = molecular target: T2, Solute carrier organic anion transporter family member 1B1 (Homo sapiens, UniProt Q9Y6L6); details: chinese hamster, cho, 10 µM
T2 sequence (Q9Y6L6 whole entry): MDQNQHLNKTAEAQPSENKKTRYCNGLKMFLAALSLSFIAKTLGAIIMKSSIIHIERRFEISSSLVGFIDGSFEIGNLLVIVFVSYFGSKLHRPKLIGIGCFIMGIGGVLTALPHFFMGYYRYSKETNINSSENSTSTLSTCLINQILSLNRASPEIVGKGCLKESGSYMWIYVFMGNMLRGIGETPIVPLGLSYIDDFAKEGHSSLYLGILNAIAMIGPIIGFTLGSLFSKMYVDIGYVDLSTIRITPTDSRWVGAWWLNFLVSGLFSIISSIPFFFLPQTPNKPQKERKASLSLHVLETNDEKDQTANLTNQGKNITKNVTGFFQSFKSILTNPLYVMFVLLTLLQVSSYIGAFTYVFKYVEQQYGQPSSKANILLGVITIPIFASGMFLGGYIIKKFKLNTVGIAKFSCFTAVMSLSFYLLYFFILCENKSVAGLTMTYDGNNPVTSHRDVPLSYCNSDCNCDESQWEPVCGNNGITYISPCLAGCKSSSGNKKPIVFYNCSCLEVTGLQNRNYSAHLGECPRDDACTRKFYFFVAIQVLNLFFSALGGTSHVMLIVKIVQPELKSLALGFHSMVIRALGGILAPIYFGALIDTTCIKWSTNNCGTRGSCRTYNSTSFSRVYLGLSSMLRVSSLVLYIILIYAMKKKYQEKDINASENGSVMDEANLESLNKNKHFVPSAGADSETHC

Row | Structure (SMILES) | residual activity [1] [%] | residual activity [2] [%]
1 | Nc1ccn([C@@H]2O[C@H](CO)[C@@H](O)[C@H]2O)c(=O)n1 [CYTIDINE] | 114 | 99.44
2 | CC(=O)O[C@H]1CC[C@@]2(C)[C@@H](CC[C@@H]3[C@@H]2CC[C@]2(C)[C@@H]4[C@H](C[C@@H]32)O[C@@]2(CCC(C)CO2)[C@H]4C)C1 (stereo not given in full) | 107.6 | 112.3
3 | CCCCC1C(=O)N(c2ccccc2)N(c2ccc(O)cc2)C1=O (stereo not given) [OXYPHENBUTAZONE ANHYDROUS] | 83.15 | 42.04
4 | Cc1ccnc(NS(=O)(=O)c2ccc(N)cc2)n1 [SULFAMERAZINE] | 101.2 | 84.88
5 | CO[C@H]1C[C@H](O[C@H]2[C@H](C)[C@@H](O[C@@H]3O[C@H](C)C[C@H](N(C)C)[C@H]3O)[C@@H](C)C[C@@]3(CO3)C(=O)[C@H](C)[C@@H](O)[C@@H](C)[C@@H](C)OC(=O)[C@@H]2C)O[C@@H](C)[C@@H]1O.O=P(O)(O)O [OLEANDOMYCIN PHOSPHATE] | 105.8 | 102.8
6 | O=C(CCc1ccc(O)cc1)c1c(O)cc(O)cc1O[C@@H]1O[C@H](CO)[C@@H](O)[C@H](O)[C@H]1O [PHLORIZIN] | 106.3 | 50.32
7 | CC(=O)OC[C@@]1(O)C[C@@]23CC[C@@H]4c5ccoc5CC[C@@]4(C)[C@@H]2CC[C@@H]1C3 [CAFESTOL ACETATE] | 89.68 | 108.6
8 | CC1COc2c(N3CCN(C)CC3)c(F)cc3c(=O)c(C(=O)O)cn1c23 (stereo not given) [OFLOXACIN] | 89.51 | 65.85
9 | CC(C)NCC(O)COc1cccc2ccccc12.Cl (stereo not given) [PROPRANOLOL HYDROCHLORIDE] | 95.98 | 59.88
10 | C=CCc1ccc2c(c1)OCO2 [SAFROLE] | 100.9 | 83.42
11 | CC(=O)O[C@H]1CC[C@@]2(C)C(=CC(=O)[C@H]3[C@@H]4CC[C@H]([C@H](C)CCCC(C)C)[C@@]4(C)CC[C@@H]32)C1 [7-OXOCHOLESTERYL ACETATE] | 99.45 | 97.51
12 | CC1CC(OC(=O)C(O)c2ccccc2)CC(C)(C)N1C.Cl (stereo not given) [EUCATROPINE HYDROCHLORIDE] | 107.8 | 84.86
13 | COc1ccc2c(c1)OCC(Cc1ccc(OC)c(OC)c1)C2=O (stereo not given) [DEOXYSAPPANONE B TRIMETHYL ETHER] | 150.7 | 174.5
14 | COC(=O)[C@H]1OC(=O)[C@H]2O[C@]23[C@]2(C)[C@H](CC[C@]13C)[C@]1(C)CCC(=O)C(C)(C)[C@@H]1C[C@H]2OC(C)=O | 97.12 | 32.74
15 | CC(=O)O[C@H]1CC[C@@]23C(=O)O[C@]45CC[C@H](C6=CC(=O)OC6)[C@@]4(C)CC[C@H]2[C@H]5CC[C@]3(O)C1 | 85.76 | 59.99
16 | CCOC(=O)[C@H](CCc1ccccc1)N[C@H]1CCc2ccccc2N(CC(=O)O)C1=O.Cl [BENAZEPRIL HYDROCHLORIDE] | 84.15 | 101.2
17 | CCOP(=S)(OCC)SCSCC [PHORATE] | 107.3 | 102.7
18 | CC(C)NNC(=O)c1ccncc1.O=S(=O)(O)O [IPRONIAZID SULFATE] | 101.8 | 122.7
19 | O=c1c(O)cccc2cc(O)c(O)c(O)c12 [PURPUROGALLIN] | 82.24 | 65.05
20 | CC(=O)C1=C(O)C=C2Oc3c(C(C)=O)c(O)c(C)c(O)c3[C@@]2(C)C1=O [(+)-USNIC ACID] | 69.13 | 31.05

Row | Structure (SMILES) | residual activity [1] [%] | residual activity [2] [%]
21 | C[C@H](CCC(=O)O)[C@H]1CC[C@H]2[C@@H]3CC[C@@H]4CCCC[C@]4(C)[C@H]3CC[C@]12C [URSOCHOLANIC ACID] | 102.7 | 98.45
22 | Cl.O=C1CC[C@@]2(O)[C@H]3Cc4ccc(O)c5c4[C@@]2(CCN3CC2CC2)[C@H]1O5 [NALTREXONE HYDROCHLORIDE] | 86.99 | 71.98
23 | O=c1c(O)c(-c2ccccc2)oc2cc(O)ccc12 [3,7-DIHYDROXYFLAVONE] | 120.8 | 151.5
24 | COc1ccc(-c2c(OC)c3c(OC)c4c(cc3oc2=O)OC(C)(C)C=C4)cc1 [ROBUSTIC ACID METHYL ETHER] | 140.2 | 184.1
25 | COc1ccc2c(c1O)-c1c(OC)c(OC)cc3c1[C@H](C2)N(C)CC3 [ISOCORYDINE] | 102.1 | 115.2
26 | O=C1C[C@@H](c2ccccc2)Oc2cc(O)cc(O)c21 [PINOCEMBRIN] | 97.25 | 202
27 | CC(C)=CCc1c(O)cc2occ(-c3ccc4c(c3)OCO4)c(=O)c2c1O [DERRUBONE] | 106.9 | 115.1
28 | CC(=O)/N=c1/sc(S(N)(=O)=O)nn1C [METHAZOLAMIDE] | 93.09 | 101.3
29 | O=C(O)CCC(=O)c1ccc(-c2ccccc2)cc1 [FENBUFEN] | 86.33 | 172.9
30 | COc1c(OC)c2occc2c2oc(=O)ccc12 [PIMPINELLIN] | 103.2 | 104.9
31 | CN(C)CCN(Cc1cccs1)c1ccccn1.Cl [METHAPYRILENE HYDROCHLORIDE] | 82.96 | 83.03
32 | CN[C@H](CC(C)C)C(=O)N[C@H]1C(=O)N[C@@H](CC(N)=O)C(=O)N[C@H]2C(=O)N[C@H]3C(=O)N[C@H](C(=O)N[C@H](C(=O)O)c4cc(O)cc(O)c4-c4cc3ccc4O)[C@H](O)c3ccc(c(Cl)c3)Oc3cc2cc(c3O[C@@H]2O[C@H](CO)[C@@H](O)[C@H](O)[C@H]2O[C@H]2C[C@](C)(N)[C@H](O)[C@H](C)O2)Oc2ccc(cc2Cl)[C@H]1O.Cl [VANCOMYCIN HYDROCHLORIDE] | 103.2 | 99.99
33 | O=C(O)c1cc(O)ccc1O [GENTISIC ACID] | 104 | 84.57
34 | NC(=O)NCCC[C@H](N)C(=O)O [L-CITRULLINE] | 119.7 | 135.1
35 | N#Cc1c(Cl)cccc1Cl [DICHLOBENIL] | 97.91 | 87.7
36 | CC(=O)O[C@H]1CC[C@@]2(C)[C@@H](CC[C@@H]3[C@@H]2CC(=O)[C@]2(C)[C@@H]4[C@H](C[C@@H]32)O[C@]2(CC[C@@H](C)CO2)[C@H]4C)C1 [HECOGENIN ACETATE] | 102 | 103.5
37 | CC1CCc2cc(F)cc3c(=O)c(C(=O)O)cn1c23 (stereo not given) [FLUMEQUINE] | 107 | 74.99
38 | CCCCCCCCCCCCCCCCOP(=O)([O-])OCC[N+](C)(C)C [MILTEFOSINE] | 93.25 | 89.28
39 | NS(=O)(=O)c1cc2c(cc1Cl)NC(C(Cl)Cl)NS2(=O)=O (stereo not given) [TRICHLORMETHIAZIDE] | 86.79 | 81.82
40 | CC(=O)OCC1=C(C(=O)[O-])N2C(=O)[C@@H](NC(=O)CCC[C@@H](N)C(=O)O)[C@H]2SC1.[Na+] | 103.2 | 89.78
